Values joined by “and” are separate entries in the source; they are usually repeats but may differ in a detail not shown here. Identical values can stand only once.
Tested on: WM3248 melanoma cells, 486 antibodies
Test: Reverse phase protein arrays (RPPA)
Type: cell-based, Human
Excerpt: Pellets were snap frozen in liquid nitrogen and shipped to MD Anderson Cancer Center core RPPA facility for RPPA analysis (Table S5). Three biological replicates for each sample were generated.
Nomenclatures on the RPPA heatmaps: name_of_antibody.species_of_antibody.status_of_antibody. V - antibody validated; C - validation of antibody in progress; Q - antibody nonspecific; E – under evaluation; antibodies raised in M - mouse, G - goat, R - rabbit, or T - rat.

[1] = 20, replicates 1-3, normalized to 0
[2] = Norm_5: replicates 1-3 and Average, relative to 0

CN(C)c1cccc(Nc2cc(-c3ccccc3)nc(C3CCNCC3)n2)c1 [ARN22089, N1,N1-dimethyl-N3-(6-phenyl-2-(piperidin-4-yl)pyrimidin-4-yl)benzene-1,3-diamine]
HER2.M.V Norm_20 Average (20, average, normalized to 0): 0.995
HER2_pY1248.R.V Norm_20 Average (20, average, normalized to 0): 1.030
HER3.R.V Norm_20 Average (20, average, normalized to 0): 0.904
HER3_pY1289.R.C Norm_20 Average (20, average, normalized to 0): 1.084
Heregulin.R.V Norm_20 Average (20, average, normalized to 0): 1.046
eEF2.R.C Norm_20 Average (20, average, normalized to 0): 1.639
eEF2K.R.V Norm_20 Average (20, average, normalized to 0): 1.409
eIF4E.R.V Norm_20 Average (20, average, normalized to 0): 1.114
eIF4G.R.C Norm_20 Average (20, average, normalized to 0): 1.165
DNMT1.R.V Norm_20 [1]: 0.937 and 0.801
DRP1.R.V Norm_20 [1]: 1.019 and 0.894 and 0.979
DUSP4.R.V Norm_20 [1]: 0.537 and 0.626 and 1.006
DUSP6.R.C Norm_20 [1]: 1.405 and 1.064 and 2.195
DYRK1B.R.C Norm_20 [1]: 0.868 and 0.959 and 0.907
Dvl3.R.V Norm_20 [1]: 0.990 and 1.118 and 0.985
E2F1.R.V Norm_20 [1]: 1.446 and 1.251
E.Cadherin.R.V Norm_20 [1]: 0.696 and 0.873 and 0.994
EGFR.R.V Norm_20 [1]: 1.083 and 1.189 and 1.125
EGFR_pY1068.R.C Norm_20 [1]: 0.892 and 0.889 and 0.961
EGFR_pY1173.R.V Norm_20 [1]: 1.079 and 1.019 and 1.046
EMA.M.C Norm_20 [1]: 0.566 and 0.868 and 0.914
ENY2.M.C Norm_20 [1]: 0.866 and 0.944 and 1.047
ER.a.R.V Norm_20 [1]: 0.939 and 0.862 and 1.078
ER.a_pS118.R.V Norm_20 [1]: 1.167 and 1.838 and 0.928
ERCC1.R.C Norm_20 [1]: 0.964 and 0.974
ERCC5.R.C Norm_20 [1]: 1.290 and 0.989 and 1.051
ERRalpha.R.V Norm_20 [1]: 0.831 and 1.056 and 1.002
EVI1.R.V Norm_20 [1]: 0.975 and 0.917
Enolase.1.R.V Norm_20 [1]: 1.030 and 1.152
Enolase.2.R.V Norm_20 [1]: 0.990 and 0.970 and 0.883
EphA2.R.V Norm_20 [1]: 0.706 and 0.773 and 0.765
EphA2_pS897.R.C Norm_20 [1]: 0.536 and 0.635 and 0.720
EphA2_pY588.R.C Norm_20 [1]: 0.930 and 1.018 and 0.973
Erk5.R.V Norm_20 [1]: 0.948 and 0.789 and 1.013
Ets.1.R.V Norm_20 [1]: 1.373 and 1.347 and 1.417
FABP5.R.C Norm_20 [1]: 1.102 and 1.223 and 1.428
FAK.R.C Norm_20 [1]: 0.837 and 0.917
FAK_pY397.R.V Norm_20 [1]: 0.847 and 0.989 and 0.940
FANCD2.R.V Norm_20 [1]: 0.831 and 0.901 and 0.823
FASN.R.V Norm_20 [1]: 0.802 and 0.983
FGF.basic.R.C Norm_20 [1]: 0.939 and 0.836 and 1.240
FN14.R.C Norm_20 [1]: 1.082 and 0.902 and 1.335
FOXM1.R.V Norm_20 [1]: 0.995 and 0.889 and 0.924
FOXO3.R.V Norm_20 [1]: 1.160 and 1.151 and 0.915
FRS2.alpha_pY196.R.V Norm_20 [1]: 0.925 and 1.195 and 1.058
FTO.R.V Norm_20 [1]: 0.992
Fibronectin.R.V Norm_20 [1]: 1.153 and 1.290 and 1.137
FoxO3a_pS318_S321.R.C Norm_20 [1]: 1.105 and 0.940
G6PD.R.V Norm_20 [1]: 0.877 and 1.061 and 0.923
GATA3.M.V Norm_20 [1]: 1.203 and 1.452 and 1.301
GATA6.R.V Norm_20 [1]: 0.945 and 0.991 and 0.928
GCLC.R.C Norm_20 [1]: 0.882 and 0.967 and 1.220
GCLM.R.V Norm_20 [1]: 0.988 and 1.024 and 0.965
GCN5L2.R.V Norm_20 [1]: 0.974 and 0.944
GGPS1.M.V Norm_20 [1]: 0.920 and 0.992 and 1.155
GRB2.R.V Norm_20 [1]: 0.992 and 0.862 and 0.948
GRB7.R.V Norm_20 [1]: 0.909 and 0.898
GSK.3B.R.C Norm_20 [1]: 0.896 and 0.924
GSK.3a.b.M.V Norm_20 [1]: 0.918 and 0.992
GSK.3a.b_pS21_S9.R.V Norm_20 [1]: 1.411 and 1.207
Gab2.R.V Norm_20 [1]: 1.447 and 1.019
Gli1.R.C Norm_20 [1]: 0.898 and 0.922 and 1.028
Gli3.R.C Norm_20 [1]: 1.237 and 1.346 and 1.321
Glucocorticoid.Receptor.R.V Norm_20 [1]: 1.227 and 1.295 and 0.987
Glutamate.D1.2.R.V Norm_20 [1]: 1.198
Glutaminase.R.C Norm_20 [1]: 1.026 and 1.144 and 1.364
Granzyme.B.R.V Norm_20 [1]: 1.284 and 1.028
Grp75.R.C Norm_20 [1]: 1.594 and 1.052 and 0.939
Gys.R.V Norm_20 [1]: 0.807 and 0.941 and 1.104
Gys_pS641.R.V Norm_20 [1]: 0.671 and 0.818 and 1.079
H2AX_pS139.R.C Norm_20 [1]: 1.188 and 2.081 and 1.030
H2AX_pS140.M.C Norm_20 [1]: 1.001 and 1.667 and 1.028
HER2.M.V Norm_20 [1]: 0.977 and 0.952 and 1.056
HER2_pY1248.R.V Norm_20 [1]: 0.902 and 1.119
HER3.R.V Norm_20 [1]: 0.864 and 0.935 and 0.913
HER3_pY1289.R.C Norm_20 [1]: 1.059 and 1.124
HES1.R.V Norm_20 [1]: 1.224 and 0.849 and 1.063
Heregulin.R.V Norm_20 [1]: 1.048 and 1.050
eEF2.R.C Norm_20 [1]: 1.328 and 1.602 and 1.986
eEF2K.R.V Norm_20 [1]: 1.469 and 1.590 and 1.169
eIF4E.R.V Norm_20 [1]: 1.107 and 0.843 and 1.392
eIF4E_pS209.R.V Norm_20 [1]: 0.954 and 0.835 and 1.321
eIF4G.R.C Norm_20 [1]: 1.493 and 1.003 and 0.999
MYH11.R.C Average (Norm_5, normalized to Norm_0): 1.033
Myosin.IIa.R.C Average (Norm_5, normalized to Norm_0): 0.991
Myosin.IIa_pS1943.R.V Average (Norm_5, normalized to Norm_0): 0.992
Myt1.R.C Average (Norm_5, normalized to Norm_0): 1.030
N.Cadherin.R.V Average (Norm_5, normalized to Norm_0): 0.967
N.Ras.M.V Average (Norm_5, normalized to Norm_0): 0.979
NDRG1_pT346.R.V Average (Norm_5, normalized to Norm_0): 1.270
NDUFB4.R.V Average (Norm_5, normalized to Norm_0): 0.954
NRF2.R.C Average (Norm_5, normalized to Norm_0): 1.024
Notch1.R.V Average (Norm_5, normalized to Norm_0): 0.893
Notch1.cleaved.R.V Average (Norm_5, normalized to Norm_0): 1.048
Notch3.R.C Average (Norm_5, normalized to Norm_0): 0.987
Oct.4.R.C Average (Norm_5, normalized to Norm_0): 1.097
P.Cadherin.R.C Average (Norm_5, normalized to Norm_0): 1.185
PAI.1.M.V Average (Norm_5, normalized to Norm_0): 0.899
PAICS.R.C Average (Norm_5, normalized to Norm_0): 0.934
PAK1.R.V Average (Norm_5, normalized to Norm_0): 0.952
PAK4.R.V Average (Norm_5, normalized to Norm_0): 0.942
PAK_pS474_S602_S560.R.V Average (Norm_5, normalized to Norm_0): 0.943
PAK_pT423_T402.R.C Average (Norm_5, normalized to Norm_0): 0.942
PAR.R.C Average (Norm_5, normalized to Norm_0): 2.806
PARG.R.C Average (Norm_5, normalized to Norm_0): 1.053
PAX6.R.V Average (Norm_5, normalized to Norm_0): 0.980
PAX8.R.C Average (Norm_5, normalized to Norm_0): 0.929
PCNA.M.C Average (Norm_5, normalized to Norm_0): 0.930
PD.1.R.V Average (Norm_5, normalized to Norm_0): 0.933
PD.L1.R.C Average (Norm_5, normalized to Norm_0): 1.049
PDH.M.V Average (Norm_5, normalized to Norm_0): 0.971
PDHA1.R.V Average (Norm_5, normalized to Norm_0): 1.000
PDHK1.R.C Average (Norm_5, normalized to Norm_0): 1.047
PDK1.R.V Average (Norm_5, normalized to Norm_0): 1.053
PDK1_pS241.R.V Average (Norm_5, normalized to Norm_0): 1.123
PEA.15.R.V Average (Norm_5, normalized to Norm_0): 0.989
PEA.15_pS116.R.V Average (Norm_5, normalized to Norm_0): 0.945
PERK.R.V Average (Norm_5, normalized to Norm_0): 0.967
PGM1.R.V Average (Norm_5, normalized to Norm_0): 1.019
PHLPP.R.V Average (Norm_5, normalized to Norm_0): 1.011
PI3K.p85.R.C Average (Norm_5, normalized to Norm_0): 0.931
PI3K.p110.a.R.C Average (Norm_5, normalized to Norm_0): 1.007
PI3K.p110.b.M.C Average (Norm_5, normalized to Norm_0): 0.980
PKA.a.R.V Average (Norm_5, normalized to Norm_0): 1.083
PKC.a.b.II_pT638_T641.R.V Average (Norm_5, normalized to Norm_0): 0.910
PKC.b.II_pS660.R.V Average (Norm_5, normalized to Norm_0): 1.083
PKCa.R.V Average (Norm_5, normalized to Norm_0): 1.160
PLC.gamma1.R.V Average (Norm_5, normalized to Norm_0): 1.065
PLC.gamma1_pS1248.R.V Average (Norm_5, normalized to Norm_0): 1.197
PLC.gamma2_pY759.R.V Average (Norm_5, normalized to Norm_0): 0.941
PLK1.R.C Average (Norm_5, normalized to Norm_0): 0.892
PMS2.R.V Average (Norm_5, normalized to Norm_0): 0.916
PR.R.V Average (Norm_5, normalized to Norm_0): 0.959
PRAS40.M.C Average (Norm_5, normalized to Norm_0): 0.988
PRC1_pT481.R.C Average (Norm_5, normalized to Norm_0): 0.915
Patched.R.C Average (Norm_5, normalized to Norm_0): 1.046
Paxillin.R.C Average (Norm_5, normalized to Norm_0): 1.013
Pdcd4.R.C Average (Norm_5, normalized to Norm_0): 1.126
Porin.M.V Average (Norm_5, normalized to Norm_0): 0.959
p21.R.C Average (Norm_5, normalized to Norm_0): 0.958
p27.Kip1.R.C Average (Norm_5, normalized to Norm_0): 0.986
p27_pT157.R.C Average (Norm_5, normalized to Norm_0): 1.081
p27_pT198.R.V Average (Norm_5, normalized to Norm_0): 1.051
p38.MAPK._pT180_Y182.R.V Average (Norm_5, normalized to Norm_0): 1.202
p38.a.M.V Average (Norm_5, normalized to Norm_0): 0.984
p44.42.MAPK.R.V Average (Norm_5, normalized to Norm_0): 1.160
p53.R.C Average (Norm_5, normalized to Norm_0): 1.083
p70.S6K1.R.V Average (Norm_5, normalized to Norm_0): 1.109
p90RSK_pT573.R.C Average (Norm_5, normalized to Norm_0): 0.871
PREX1.R.V normalized RPPA signal [2]: 1.167 and 1.060 and 1.135 and 1.121
PTEN.R.V normalized RPPA signal [2]: 1.061 and 1.012 and 1.047
PTPN12.R.V normalized RPPA signal [2]: 1.010 and 0.988 and 1.023
PYGB.R.V normalized RPPA signal [2]: 1.017 and 1.164 and 0.766 and 0.982
PYGM.M.C normalized RPPA signal [2]: 0.997 and 1.153 and 0.846 and 0.999
Puma.R.C normalized RPPA signal [2]: 1.064 and 1.136 and 0.836 and 1.012
Pyk2_pY402.R.C normalized RPPA signal [2]: 1.133 and 1.024 and 1.065
RBM15.R.V normalized RPPA signal [2]: 0.984 and 1.128
RIP3.R.C normalized RPPA signal [2]: 1.061 and 1.027 and 1.055 and 1.048
RIP.R.C normalized RPPA signal [2]: 0.916 and 0.977 and 0.799 and 0.897
RPA32.R.V normalized RPPA signal [2]: 1.150 and 0.846 and 1.011
RPA32_pS4_S8.R.C normalized RPPA signal [2]: 1.171 and 1.234 and 0.878
RRM1.R.C normalized RPPA signal [2]: 0.936 and 0.952 and 0.975
RRM2.R.C normalized RPPA signal [2]: 0.907 and 1.001 and 0.922 and 0.943

Source: PMC9127750, “Structure-based design of CDC42 effector interaction inhibitors for the treatment of cancer” (Cell reports, 2022)
